“Also recorded” adds a separate entry of the source.
Tests used:
[1] = Plasma remogliflozin after oral immediate release (IR) tablet; assay type: in vivo
Description: Oral dosage forms according to the invention are typically tablets or capsules. Tablets can be obtained by direct compression of the mixed components of a dosage form, including a therapeutically effective amount of an SGLT2 inhibitor, and selected excipients, like cellulose derivatives, metacrylates, chitosan, carboxymethylstarch, or mixtures thereof. For example, a compressed tablet according to the invention, can be prepared by granulating a SGLT2 inhibitor with microcrystalline cellulose and croscarmellose sodium with a water and povidone solution. The resulting granules are dried, milled, and then blended with mannitol, microcrystalline cellulose, and croscarmellose. The blend is lubricated with magnesium stearate and compressed. […] Indeed, Tmax for an IR remogliflozin etabonate oral dosage form according to the invention occurs at 1 hour, or less, following ingestion of the dosage form by a subject.

TIA mice = experiment: TIA mouse model of liver and biliary disease resembling PBC/PSC, H&E liver histology and survival; assay type: in vivo; conditions: for inflammation at the interface between the hepatic parenchyma and the portal tracts (interface hepatitis) / proliferation of bile ductules (bile ductular proliferation) / periportal and biliary inflammation: TIA mice at 11 weeks, H&E liver sections, vs untreated TIA mice; for inflammation at the interface between the hepatic parenchyma and the portal tracts (interface hepatitis): 0.03% in chow for 7 weeks; for proliferation of bile ductules (bile ductular proliferation) / periportal and biliary inflammation: 0.03% in chow from 4 weeks of age
Description: The following Examples describe the utilization of a murine model of liver damage to assess the effectiveness of a treatment regimen based on the oral administration of remogliflozin etabonate. The murine model is based on mice that are deficient for the expression of tumor necrosis factor alpha (“TNFα”), interleukin 10 (“IL-10”), and activation-induced cytidine deaminase (“AICDA”). As the mice are deficient in TNF, IL-10, and AICDA, they are referred to, herein, as “TIA” mice. These liver outcomes in these animals also closely resemble that of PBC.
Moreover, as AICDA is required for immunoglobulin (“Ig”) class switching, TIA mice lack IgG and IgA, a phenotype analogous to humans with hyper-IgM syndrome. Therefore, with the combination of AICDA deficiency with the risk factors associated with TNFα and IL-10 deficiencies, TIA mice also develop liver and biliary inflammation reminiscent of PSC and PBC symptoms in humans. Accordingly, the TIA model is useful for investigating mechanisms that act early in PBC pathogenesis, as well as treatments that can prevent progression to PBC and PSC.
Example 1. Orally-administered remogliflozin etabonate reduces inflammatory cell infiltration, bile ductular proliferation, and interface hepatitis in TIA mice. TIA mice were created by first breeding TNFα knock out (“KO”) C57BL/6 mice, (strain B6.129S-Tnf^tm1Gkl/J, stock #005540, Jackson Laboratories, Bar Harbor, Me.) with IL-10 KO mice (strain B10.129P2(B6)-IL10^tm1Cgn/J, Stock No. 002251, Jackson Laboratories) to produce a population of mice that were deficient in TNFα and IL-10. Because mice with a TNFα −/− and IL10 −/− genotype spontaneously develop inflammatory bowel disease (“IBD”) (Hale 2012), a condition associated with poor breeding success (Nagy 2016), the mice needed for further breeding to generate an AICDA population, were generated by breeding offspring with a TNFα and IL10+/− genotype with AICDA −/− mice, which were obtained from Dr. Tasuku Honjo (Muramatsu 2000)), to produce a population of TNFα −/−, IL10 −/−, and AICDA+/−(“TI-hetA”) males and females. In turn, TI-hetA pairs were bred to generate populations that were 25% TIA mice, and 50% non-colitis-susceptible TI-hetA littermates that could be used as control populations. All populations were exposed to the same environment from birth. The mice were housed in polycarbonate micro-isolator cages, in individually ventilated racks, under barrier conditions that excluded all known pathogens, including Helicobacter pylori and Norovirus. Mice had ad libitum access to water, and to a standard diet (PicoLab Mouse Diet 20/5058, LabDiet, St. Louis, Mo., USA).
At four (4) weeks of age, TIA (40) and TI-hetA (22) mice were randomized into experimental groups that received either a standard diet (20 TIA and 12 het), or a standard diet formulated 0.03% remogliflozin etabonate (20 TIA and 10 het) (Avolynt Inc., USA). The mice were maintained on this diet for seven (7) weeks. Body weights were obtained three (3) times, weekly, to assess the general health of mice, and to track the development of inflammatory bowel disease (IBD). Glycosuria in the experimental groups was assessed by applying freshly voided urine directly to the glucose test patch on an Accutest® URS-10 urinary reagent test strips (Jant Pharmaceutical Corp., Encino, Calif., USA). Mice were humanely euthanized before reaching the experimental endpoint, of eleven (11) weeks of age, if they lost >15% body weight, or developed rectal prolapse.
To characterize biliary lesions in TIA mice at the end of the 7 week treatment period, liver tissue was obtained from the remogliflozin-treated, and untreated groups, for histologic examination. The excised liver tissue was fixed in Carnoy's fixative solution, and processed into paraffin blocks. The paraffin blocks were sectioned, and stained with Hematoxylin and eosin (H&E) for pathologic analysis. The H&E-stained sections were scored by an American Board of Pathology-certified pathologist. […]

## CCOC(=O)OC[C@H]1O[C@@H](Oc2nn(C(C)C)c(C)c2Cc2ccc(OC(C)C)cc2)[C@H](O)[C@@H](O)[C@@H]1O [remogliflozin etabonate]
[1]; IR remogliflozin etabonate oral dosage form, following ingestion
  Tmax: ≤ 1 h
[1]; compressed IR tablet, 350 mg remogliflozin etabonate, oral, after 3 hrs
  remogliflozin plasma concentration after clearance: 40 ng/mL
[1]; compressed IR tablet, 350 mg remogliflozin etabonate, oral, at 1 hr post-ingestion
  maximum remogliflozin plasma concentration (Cmax): 160 ng/mL
TIA mice; Remo group versus control group, 7 week study
  number of TIA mice that required early euthanasia: no statistical difference
TIA mice; Remo group versus control group, not statistically significant
  early death: trend toward decreased early death
TIA mice
  inflammation at the interface between the hepatic parenchyma and the portal tracts (interface hepatitis): reduces
  proliferation of bile ductules (bile ductular proliferation): reduces
TIA mice; listed as remogliflozin
  inflammation at the interface between the hepatic parenchyma and the portal tracts (interface hepatitis): less inflammation
  periportal and biliary inflammation: less inflammation
  proliferation of bile ductules (bile ductular proliferation): less proliferation of bile ductiles
TIA mice; listed as Remo
  periportal and biliary inflammation: decrease in periportal and biliary inflammation
  proliferation of bile ductules (bile ductular proliferation): decrease in proliferation of bile ductules
TIA mice; TIA mice, 0.03% remogliflozin etabonate in diet for 7 weeks from 4 weeks of age, vs standard diet
  development and progression of liver and biliary disease: prevents the progression of PBC disease pathology; also recorded: markedly less development and progression of liver and biliary disease
TIA mice; TIA mice, oral, 0.03% in diet for 7 weeks
  inflammatory cell infiltration: reduces

— patent US20220387467A1, “USE OF SGLT2 INHIBITORS TO TREAT PRIMARY BILLIARY CHOLANGITIS” (AVOLYNT, priority 2019, published 2022)
